# Like-named read-outs stand apart in the source and are kept apart here.
# How the values were obtained:
# Assay in all cases: selectivity profiling in a panel of 340 wild-type kinases (Reaction Biology Europe)
# Format in all cases: binding
# 340 wild-type kinases [1] = target: T1, 340 wild-type kinases (Homo sapiens, UniProt P04626)
# T1 construct: purchased Reaction Biology Europe
# 340 wild-type kinases [2] = target: T2, 340 wild-type kinases (Homo sapiens, UniProt Q8TF76)
# T2 construct: purchased Reaction Biology Europe
# T2 sequence (Q8TF76 1-798): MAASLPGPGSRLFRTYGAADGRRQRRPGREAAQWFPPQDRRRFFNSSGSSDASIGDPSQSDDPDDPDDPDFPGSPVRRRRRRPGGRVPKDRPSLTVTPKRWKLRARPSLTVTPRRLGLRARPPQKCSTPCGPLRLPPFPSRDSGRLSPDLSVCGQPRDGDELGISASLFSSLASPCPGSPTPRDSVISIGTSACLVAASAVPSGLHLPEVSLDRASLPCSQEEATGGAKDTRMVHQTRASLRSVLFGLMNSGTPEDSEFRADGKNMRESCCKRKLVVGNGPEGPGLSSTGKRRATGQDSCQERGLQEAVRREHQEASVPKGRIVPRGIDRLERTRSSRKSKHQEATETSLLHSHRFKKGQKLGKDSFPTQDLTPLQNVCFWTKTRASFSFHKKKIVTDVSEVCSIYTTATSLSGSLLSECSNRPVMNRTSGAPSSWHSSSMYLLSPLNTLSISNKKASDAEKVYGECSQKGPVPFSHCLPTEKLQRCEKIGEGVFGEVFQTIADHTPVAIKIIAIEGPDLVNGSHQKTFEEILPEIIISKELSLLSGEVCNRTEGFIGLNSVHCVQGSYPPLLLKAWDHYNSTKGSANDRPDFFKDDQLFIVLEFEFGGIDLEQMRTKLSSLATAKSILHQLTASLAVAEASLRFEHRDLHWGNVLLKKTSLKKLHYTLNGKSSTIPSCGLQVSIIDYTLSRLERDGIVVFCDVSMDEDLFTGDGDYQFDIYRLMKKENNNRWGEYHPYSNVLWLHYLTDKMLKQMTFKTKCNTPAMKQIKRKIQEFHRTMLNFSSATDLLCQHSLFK
# 340 wild-type kinases [3] = target: T3, 340 wild-type kinases (Homo sapiens, UniProt O14920)
# T3 construct: purchased Reaction Biology Europe
# T3 sequence (O14920 1-756): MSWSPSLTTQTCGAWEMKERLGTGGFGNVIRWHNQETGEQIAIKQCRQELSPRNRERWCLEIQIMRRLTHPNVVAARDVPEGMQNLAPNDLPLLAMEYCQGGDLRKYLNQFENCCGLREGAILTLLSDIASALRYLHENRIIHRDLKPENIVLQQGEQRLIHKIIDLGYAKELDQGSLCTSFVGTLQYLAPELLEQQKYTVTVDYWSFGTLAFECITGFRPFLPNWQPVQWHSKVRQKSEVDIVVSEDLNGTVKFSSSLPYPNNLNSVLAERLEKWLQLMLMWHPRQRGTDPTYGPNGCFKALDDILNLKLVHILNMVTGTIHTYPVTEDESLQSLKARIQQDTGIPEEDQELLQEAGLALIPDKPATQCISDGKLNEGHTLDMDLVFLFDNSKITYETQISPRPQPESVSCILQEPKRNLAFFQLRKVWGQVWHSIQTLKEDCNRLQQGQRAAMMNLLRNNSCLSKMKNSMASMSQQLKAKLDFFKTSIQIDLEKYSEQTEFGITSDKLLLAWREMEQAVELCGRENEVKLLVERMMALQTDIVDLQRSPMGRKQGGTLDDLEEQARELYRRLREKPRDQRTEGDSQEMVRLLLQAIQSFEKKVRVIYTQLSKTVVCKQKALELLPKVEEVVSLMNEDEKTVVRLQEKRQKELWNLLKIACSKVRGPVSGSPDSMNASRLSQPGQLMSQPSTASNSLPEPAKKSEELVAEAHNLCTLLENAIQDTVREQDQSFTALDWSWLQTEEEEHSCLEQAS
# 340 wild-type kinases [4] = target: T4, 340 wild-type kinases (Homo sapiens, UniProt P48729)
# T4 construct: purchased Reaction Biology Europe
# 340 wild-type kinases [5] = target: T5, 340 wild-type kinases (Homo sapiens, UniProt Q99640)
# T5 construct: purchased Reaction Biology Europe
# T5 sequence (Q99640 1-499): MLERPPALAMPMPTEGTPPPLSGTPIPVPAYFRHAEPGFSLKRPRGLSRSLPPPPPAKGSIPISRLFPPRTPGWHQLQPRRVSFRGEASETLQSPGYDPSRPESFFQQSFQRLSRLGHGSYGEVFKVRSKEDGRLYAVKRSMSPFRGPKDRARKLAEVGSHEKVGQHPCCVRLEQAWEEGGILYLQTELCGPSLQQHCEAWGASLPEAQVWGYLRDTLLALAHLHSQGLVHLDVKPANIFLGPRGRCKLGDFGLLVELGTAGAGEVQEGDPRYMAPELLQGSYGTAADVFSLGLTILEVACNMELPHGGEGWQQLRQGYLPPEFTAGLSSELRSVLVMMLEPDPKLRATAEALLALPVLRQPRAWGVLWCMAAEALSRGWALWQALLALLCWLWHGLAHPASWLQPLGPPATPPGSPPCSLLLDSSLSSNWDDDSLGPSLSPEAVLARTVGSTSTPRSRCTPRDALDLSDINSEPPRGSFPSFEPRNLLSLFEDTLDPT
# 340 wild-type kinases [6] = target: T6, 340 wild-type kinases (Homo sapiens, UniProt P49674)
# T6 construct: purchased Reaction Biology Europe
# 340 wild-type kinases [7] = target: T7, 340 wild-type kinases (Homo sapiens, UniProt Q9NYV4)
# T7 construct: purchased Reaction Biology Europe
# 340 wild-type kinases [8] = target: T8, 340 wild-type kinases (Homo sapiens, UniProt P48730)
# T8 construct: purchased Reaction Biology Europe
# T8 sequence (P48730 whole entry): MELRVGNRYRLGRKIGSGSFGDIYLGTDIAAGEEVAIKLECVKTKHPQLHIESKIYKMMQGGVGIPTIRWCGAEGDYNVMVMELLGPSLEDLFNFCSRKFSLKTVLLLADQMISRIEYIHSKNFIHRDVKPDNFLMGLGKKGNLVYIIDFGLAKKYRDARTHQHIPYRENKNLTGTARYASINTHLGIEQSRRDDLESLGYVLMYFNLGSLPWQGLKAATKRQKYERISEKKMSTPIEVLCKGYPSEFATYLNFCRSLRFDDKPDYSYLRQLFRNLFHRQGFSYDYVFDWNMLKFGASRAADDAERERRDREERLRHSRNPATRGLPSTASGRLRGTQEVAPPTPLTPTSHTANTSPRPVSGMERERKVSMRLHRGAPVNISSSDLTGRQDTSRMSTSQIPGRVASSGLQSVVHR
# T7 sequence (Q9NYV4 whole entry): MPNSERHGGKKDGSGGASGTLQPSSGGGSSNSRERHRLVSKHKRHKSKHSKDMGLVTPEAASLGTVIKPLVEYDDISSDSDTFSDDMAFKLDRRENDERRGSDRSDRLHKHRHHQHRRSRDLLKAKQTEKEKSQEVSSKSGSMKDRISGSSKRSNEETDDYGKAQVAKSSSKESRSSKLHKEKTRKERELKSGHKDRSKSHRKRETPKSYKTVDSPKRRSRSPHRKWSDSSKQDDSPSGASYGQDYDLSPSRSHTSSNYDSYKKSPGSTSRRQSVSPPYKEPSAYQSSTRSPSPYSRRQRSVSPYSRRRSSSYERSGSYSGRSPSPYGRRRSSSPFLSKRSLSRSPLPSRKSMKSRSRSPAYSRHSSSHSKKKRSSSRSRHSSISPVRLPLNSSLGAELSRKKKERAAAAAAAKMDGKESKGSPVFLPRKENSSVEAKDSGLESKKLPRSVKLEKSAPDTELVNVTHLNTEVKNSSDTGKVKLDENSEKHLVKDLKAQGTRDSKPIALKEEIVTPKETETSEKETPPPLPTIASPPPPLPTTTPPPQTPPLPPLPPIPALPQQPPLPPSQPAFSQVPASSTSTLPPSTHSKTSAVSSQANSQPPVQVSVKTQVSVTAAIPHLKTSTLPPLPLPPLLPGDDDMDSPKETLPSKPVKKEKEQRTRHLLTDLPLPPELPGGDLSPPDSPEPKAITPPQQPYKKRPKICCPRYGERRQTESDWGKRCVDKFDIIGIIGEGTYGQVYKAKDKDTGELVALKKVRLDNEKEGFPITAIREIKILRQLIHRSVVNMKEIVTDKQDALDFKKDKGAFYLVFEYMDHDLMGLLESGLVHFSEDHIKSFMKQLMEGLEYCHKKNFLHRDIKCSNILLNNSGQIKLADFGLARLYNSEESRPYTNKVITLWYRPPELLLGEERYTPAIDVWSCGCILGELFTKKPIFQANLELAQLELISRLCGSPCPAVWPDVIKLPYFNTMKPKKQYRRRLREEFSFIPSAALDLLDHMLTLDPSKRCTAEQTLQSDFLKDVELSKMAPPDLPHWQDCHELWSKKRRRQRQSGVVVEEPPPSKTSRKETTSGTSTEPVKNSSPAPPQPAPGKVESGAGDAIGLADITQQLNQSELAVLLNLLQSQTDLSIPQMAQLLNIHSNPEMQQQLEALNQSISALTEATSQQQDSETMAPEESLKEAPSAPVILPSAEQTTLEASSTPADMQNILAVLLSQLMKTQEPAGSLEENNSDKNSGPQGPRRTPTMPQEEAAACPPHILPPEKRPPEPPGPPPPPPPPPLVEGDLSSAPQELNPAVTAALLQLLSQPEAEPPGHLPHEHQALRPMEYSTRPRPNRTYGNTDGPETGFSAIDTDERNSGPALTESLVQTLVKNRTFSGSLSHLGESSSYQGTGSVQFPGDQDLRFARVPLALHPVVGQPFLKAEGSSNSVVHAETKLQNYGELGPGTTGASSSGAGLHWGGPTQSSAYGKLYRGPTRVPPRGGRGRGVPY
# T6 sequence (P49674 whole entry): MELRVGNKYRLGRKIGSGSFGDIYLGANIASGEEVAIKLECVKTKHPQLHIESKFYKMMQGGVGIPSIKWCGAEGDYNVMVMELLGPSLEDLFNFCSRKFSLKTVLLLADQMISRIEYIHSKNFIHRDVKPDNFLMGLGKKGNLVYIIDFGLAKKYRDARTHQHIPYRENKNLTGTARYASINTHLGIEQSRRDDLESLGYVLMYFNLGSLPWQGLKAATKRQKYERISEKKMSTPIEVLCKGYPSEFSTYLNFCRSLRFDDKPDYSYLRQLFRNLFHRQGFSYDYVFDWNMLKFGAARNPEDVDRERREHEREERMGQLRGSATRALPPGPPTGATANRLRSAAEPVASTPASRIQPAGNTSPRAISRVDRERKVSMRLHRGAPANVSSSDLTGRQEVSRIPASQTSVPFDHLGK
# T4 sequence (P48729 whole entry): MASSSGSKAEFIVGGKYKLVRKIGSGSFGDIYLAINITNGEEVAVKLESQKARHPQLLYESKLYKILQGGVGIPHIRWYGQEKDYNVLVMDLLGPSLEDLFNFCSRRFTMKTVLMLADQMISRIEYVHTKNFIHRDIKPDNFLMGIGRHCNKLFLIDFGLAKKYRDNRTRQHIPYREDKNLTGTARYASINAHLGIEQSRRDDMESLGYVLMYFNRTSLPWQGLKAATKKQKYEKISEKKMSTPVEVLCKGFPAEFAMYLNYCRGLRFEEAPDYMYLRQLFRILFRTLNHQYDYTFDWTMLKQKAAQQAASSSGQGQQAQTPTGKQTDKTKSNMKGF
# T1 sequence (P04626 23-1255): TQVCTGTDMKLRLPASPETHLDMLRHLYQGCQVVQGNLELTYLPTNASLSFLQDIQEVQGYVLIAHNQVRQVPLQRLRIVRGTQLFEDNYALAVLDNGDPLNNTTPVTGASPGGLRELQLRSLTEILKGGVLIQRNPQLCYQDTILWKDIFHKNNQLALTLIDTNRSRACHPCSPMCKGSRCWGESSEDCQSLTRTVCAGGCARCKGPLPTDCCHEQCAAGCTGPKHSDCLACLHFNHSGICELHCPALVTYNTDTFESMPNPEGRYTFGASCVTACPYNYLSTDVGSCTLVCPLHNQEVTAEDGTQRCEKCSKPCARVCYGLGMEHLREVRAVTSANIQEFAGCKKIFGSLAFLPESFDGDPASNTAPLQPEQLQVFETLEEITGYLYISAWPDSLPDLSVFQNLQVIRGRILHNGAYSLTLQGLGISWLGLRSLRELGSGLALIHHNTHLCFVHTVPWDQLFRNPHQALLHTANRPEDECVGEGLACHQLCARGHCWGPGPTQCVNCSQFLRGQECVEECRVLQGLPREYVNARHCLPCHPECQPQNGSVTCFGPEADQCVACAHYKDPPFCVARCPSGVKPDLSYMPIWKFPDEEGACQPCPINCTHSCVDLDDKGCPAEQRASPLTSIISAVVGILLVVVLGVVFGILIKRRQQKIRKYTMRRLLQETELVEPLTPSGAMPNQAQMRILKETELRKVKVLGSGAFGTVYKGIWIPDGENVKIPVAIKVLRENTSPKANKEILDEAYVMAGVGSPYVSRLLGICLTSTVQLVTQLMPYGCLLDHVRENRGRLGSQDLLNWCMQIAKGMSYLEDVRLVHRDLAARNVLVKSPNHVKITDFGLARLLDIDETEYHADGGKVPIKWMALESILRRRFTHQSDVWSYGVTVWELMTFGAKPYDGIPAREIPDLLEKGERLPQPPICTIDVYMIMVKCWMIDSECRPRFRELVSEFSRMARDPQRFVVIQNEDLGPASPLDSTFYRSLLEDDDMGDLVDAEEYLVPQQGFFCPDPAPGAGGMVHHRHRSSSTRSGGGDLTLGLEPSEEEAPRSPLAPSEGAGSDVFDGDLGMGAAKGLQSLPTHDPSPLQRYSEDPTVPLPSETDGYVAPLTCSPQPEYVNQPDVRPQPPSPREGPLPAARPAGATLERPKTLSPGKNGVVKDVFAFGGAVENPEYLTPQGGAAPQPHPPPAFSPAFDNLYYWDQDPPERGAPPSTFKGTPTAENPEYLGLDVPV
smiles,measurement,setting,value
CNC(=O)c1ccc2c(c1)C(=O)c1ccc(Nc3ccc(F)c(NC(=O)C4CC4)c3)cc1CC2 [Compound 2015],remaining activity at 0.2 µM,"340 wild-type kinases [1]; 0.2 µM 2015, read-out: ERBB2 residual activity",105%
same,remaining activity at 1 µM,"340 wild-type kinases [1]; 1 µM 2015, read-out: ERBB2 residual activity",102%
same,remaining activity at 0.2 µM,"340 wild-type kinases [1]; ERBB2, 0.2 µM, read-out: residual activity",105%
same,remaining activity at 1 µM,"340 wild-type kinases [1]; ERBB2, 1 µM, read-out: residual activity",102%
same,remaining activity at 0.2 µM,"340 wild-type kinases [2]; 0.2 µM 2015, read-out: GSG2 residual activity",105%
same,remaining activity at 1 µM,"340 wild-type kinases [2]; 1 µM 2015, read-out: GSG2 residual activity",82.5%
same,remaining activity at 0.2 µM,"340 wild-type kinases [2]; GSG2, 0.2 µM, read-out: residual activity",105%
same,remaining activity at 1 µM,"340 wild-type kinases [2]; GSG2, 1 µM, read-out: residual activity",82.5%
same,remaining activity at 0.2 µM,"340 wild-type kinases [3]; 0.2 µM 2015, read-out: IKKbeta residual activity",108%
same,remaining activity at 1 µM,"340 wild-type kinases [3]; 1 µM 2015, read-out: IKKbeta residual activity",99%
same,remaining activity at 0.2 µM,"340 wild-type kinases [3]; IKKbeta, 0.2 µM, read-out: residual activity",108%
same,remaining activity at 1 µM,"340 wild-type kinases [3]; IKKbeta, 1 µM, read-out: residual activity",99%
same,remaining activity at 0.2 µM,"340 wild-type kinases [4]; 0.2 µM 2015, read-out: CK1alpha1 residual activity",98.6%
same,remaining activity at 0.2 µM,"340 wild-type kinases [4]; CK1alpha1, 0.2 µM, read-out: residual activity",98.6%
same,remaining activity at 1 µM,"340 wild-type kinases [4]; CK1alpha1, 1 µM, read-out: residual activity",94.9%
same,remaining activity at 0.2 µM,"340 wild-type kinases [5]; 0.2 µM 2015, read-out: PKMYT1 residual activity",98.1%
same,remaining activity at 1 µM,"340 wild-type kinases [5]; 1 µM 2015, read-out: PKMYT1 residual activity",102%
same,remaining activity at 0.2 µM,"340 wild-type kinases [5]; PKMYT1, 0.2 µM, read-out: residual activity",98%
same,remaining activity at 1 µM,"340 wild-type kinases [5]; PKMYT1, 1 µM, read-out: residual activity",102%
same,remaining activity at 0.2 µM,"340 wild-type kinases [6]; 0.2 µM 2015, read-out: CK1epsilon residual activity",114%
same,remaining activity at 1 µM,"340 wild-type kinases [6]; 1 µM 2015, read-out: CK1epsilon residual activity",111%
same,remaining activity at 0.2 µM,"340 wild-type kinases [6]; CK1epsilon, 0.2 µM, read-out: residual activity",114%
same,remaining activity at 1 µM,"340 wild-type kinases [6]; CK1epsilon, 1 µM, read-out: residual activity",111%
same,remaining activity at 0.2 µM,"340 wild-type kinases [7]; 0.2 µM 2015, read-out: CDK12/CycK residual activity",112%
same,remaining activity at 1 µM,"340 wild-type kinases [7]; 1 µM 2015, read-out: CDK12/CycK residual activity",103%
same,remaining activity at 0.2 µM,"340 wild-type kinases [7]; CDK12/CycK, 0.2 µM, read-out: residual activity",112%
same,remaining activity at 1 µM,"340 wild-type kinases [7]; CDK12/CycK, 1 µM, read-out: residual activity",103%
same,remaining activity at 0.2 µM,"340 wild-type kinases [8]; 0.2 µM 2015, read-out: CK1delta residual activity",117%
same,remaining activity at 1 µM,"340 wild-type kinases [8]; 1 µM 2015, read-out: CK1delta residual activity",111%
same,remaining activity at 0.2 µM,"340 wild-type kinases [8]; CK1delta, 0.2 µM, read-out: residual activity",117%
same,remaining activity at 1 µM,"340 wild-type kinases [8]; CK1delta, 1 µM, read-out: residual activity",111%

# Source: article PMC11864979, “First-in-class ultralong-target-residence-time p38α inhibitors as a mitosis-targeted therapy for colorectal cancer” (Nature Cancer, 2025)
